# In US20240000767A1, “COMBINATION OF AN ALPHA2-ADRENOCEPTOR SUBTYPE C (ALPHA-2C) ANTAGONIST WITH A TASK1/3 CHANNEL BLOCKER FOR THE TREATMENT OF SLEEP APNEA” (Bayer Aktiengesellschaft, priority 2020, published 2024):
# Columns and labels:
# [1] = system: anaesthetized, spontaneously breathing pigs; assay: Pig model of obstructive sleep apnea (OSA): upper airway collapsibility under negative pressure; assay type: in vivo, German Landrace pigs
# Description: B-3 Animal Model of Obstructive Sleep Apnoea in the Pig
# Using negative pressure, it is possible to induce collapse and thus obstruction of the upper respiratory tract in anesthetized, spontaneously breathing pigs [Wirth et al., Sleep 36, 699-708 (2013)].
# German Landrace pigs are used for the model. The pigs are anesthetized and tracheotomized. One cannula each is inserted into the rostral and the caudal part of the trachea. Using a T connector, the rostral cannula is connected on the one hand to a device generating negative pressures and on the other hand to the caudal cannula. Using a T connector, the caudal cannula is connected to the rostral cannula and to a tube which allows spontaneous breathing circumventing the upper respiratory tract. By appropriate closing and opening of the tubes it is thus possible for the pig to change from normal nasal breathing to breathing via the caudal cannula during the time when the upper respiratory tract is isolated and connected to the device for generating negative pressures. The muscle activity of the musculus genioglossus is recorded by electromyogram (EMG).
# (§1) At certain points in time, the collapsibility of the upper respiratory tract is tested by having the pig breathe via the caudal cannula and applying negative pressures of −50, −100 and −150 cm water head (cmH2O) to the upper respiratory tract. This causes the upper respiratory tract to collapse, which manifests itself in an interruption of the airflow and a pressure drop in the tube system. This test is conducted prior to the administration of the test substance and at certain intervals after the administration of the test substance. An appropriately effective test substance can prevent this collapse of the respiratory tract in the inspiratory phase.
# Administration of the test substance can be intranasal, intravenous, subcutaneous, intraperitoneal, intraduodenal or intragastral.
# The therapeutic potential of the combination of an α2-Adrenoceptor subtype C (alpha-2C) antagonists with a TASK⅓ channel blocker according to the present invention in sleep apnea can be assessed preclinically in a pig model of obstructive sleep apnea (OSA).
# Using negative pressure, it is possible to induce collapse and thus obstruction of the upper respiratory tract in anaesthetized, spontaneously breathing pigs (Wirth K. J. et al., Sleep 36(5) (2013) pp. 699-708).
# German Landrace pigs are used for the model. The pigs are anaesthetized and tracheotomized. Two tracheal cannulas are inserted into the trachea, one into the rostral part and the other into the caudal part of the trachea. Using a connection piece, the rostral cannula is connected to a tube to the negative pressure device and to the distal tracheal cannula. The distal tracheal cannula is additionally connected to a tube with an open end to atmosphere via a connection piece that served for free tracheal breathing, circumventing the upper airway. By appropriate opening and clamping of those tubes breathing can be switched from nasal breathing to breathing through the caudal tracheal cannula, circumventing the upper airway, and the (isolated) upper airway can be connected to the negative pressure device, causing airflow in the inspiratory direction.
# as §1, with “(cm H2O)” for “(cmH2O)”
# human ADRA2C receptor = human ADRA2C receptor (Homo sapiens (Human), UniProt P18825); assay: In vitro activity assay to determine the inhibition of recombinant ADRA2C (CHO-K1 cells, aequorin bioluminescence); assay type: cell-based; conditions: inhibition of noradrenaline-induced bioluminescence signal; some mean values from multiple determinations; read-out: ARα2C IC50
# Outline: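 IC50 is the concentration halving the agonist (noradrenaline)-evoked rise in aequorin luminescence, fitted by 4-parameter Hill function. Read in stable Gαq/aequorin CHO-K1 cells expressing recombinant human ADRA2C.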
# [2] = 15 μg/kg i.v. bolus then 5 μg/kg/h i.v. infusion for four hours from 0 min, time 0 min
# [3] = 15 μg/kg i.v. bolus then 5 μg/kg/h i.v. infusion for four hours from 0 min, time 30 min
# [4] = 15 μg/kg i.v. bolus then 5 μg/kg/h i.v. infusion for four hours from 0 min, time 60 min
# [5] = 15 μg/kg i.v. bolus then 5 μg/kg/h i.v. infusion for four hours from 0 min, time 90 min
# [6] = 15 μg/kg i.v. bolus then 5 μg/kg/h i.v. infusion for four hours from 0 min, time 120 min
# [7] = 0.3 μg intranasal at 0 min, time 0 min
# [8] = 0.3 μg intranasal at 0 min, time 10 min
# [9] = 0.3 μg intranasal at 0 min, time 30 min
# [10] = 0.3 μg intranasal at 0 min, time 60 min
# [11] = 0.3 μg intranasal at 0 min, time 90 min
# human ADRA2C receptor, sequence (P18825 whole entry): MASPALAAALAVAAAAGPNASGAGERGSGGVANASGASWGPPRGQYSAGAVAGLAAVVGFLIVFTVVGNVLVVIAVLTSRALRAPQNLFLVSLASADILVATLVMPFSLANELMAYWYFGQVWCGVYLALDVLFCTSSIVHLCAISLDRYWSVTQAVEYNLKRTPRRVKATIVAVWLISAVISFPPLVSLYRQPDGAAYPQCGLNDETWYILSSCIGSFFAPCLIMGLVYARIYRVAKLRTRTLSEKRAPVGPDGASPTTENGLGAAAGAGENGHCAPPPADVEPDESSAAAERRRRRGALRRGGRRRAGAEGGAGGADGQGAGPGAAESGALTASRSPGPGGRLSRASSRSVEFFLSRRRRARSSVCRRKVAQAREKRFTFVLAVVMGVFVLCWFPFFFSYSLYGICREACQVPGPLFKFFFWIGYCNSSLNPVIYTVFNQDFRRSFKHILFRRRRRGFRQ
smiles,measurement,setting,value
COCC1CCCN(C2CCN(c3ncc(C(=O)NCc4ncc(F)cc4F)s3)CC2)C1 (stereo not drawn),Percent pigs without collaps −50 cm H2O,[1]; [2],0%
same,Percent pigs without collaps −100 cm H2O,[1]; [2],0%
same,Percent pigs without collaps −150 cm H2O,[1]; [2],0%
same,Percent pigs without collaps −50 cm H2O,[1]; [3],0%
same,Percent pigs without collaps −100 cm H2O,[1]; [3],0%
same,Percent pigs without collaps −150 cm H2O,[1]; [3],0%
same,Percent pigs without collaps −50 cm H2O,[1]; [4],0%
same,Percent pigs without collaps −100 cm H2O,[1]; [4],0%
same,Percent pigs without collaps −150 cm H2O,[1]; [4],0%
same,Percent pigs without collaps −50 cm H2O,[1]; [5],50%
same,Percent pigs without collaps −100 cm H2O,[1]; [5],50%
same,Percent pigs without collaps −150 cm H2O,[1]; [5],50%
same,Percent pigs without collaps −50 cm H2O,[1]; [6],0%
same,Percent pigs without collaps −100 cm H2O,[1]; [6],0%
same,Percent pigs without collaps −150 cm H2O,[1]; [6],0%
same,"time points at which upper airway collapsibility was inhibited at all negative pressures of −50, −100 and −150 cm H2O in all pigs","[1]; third set, 15 μg/kg i.v. bolus followed by i.v. infusion of 5 μg/kg/h for four hours, alone",at no time point
"COc1ccc(Cl)c(C(=O)N2C3CCC2CN(Cc2c(-c4ccc(C(C)C)cc4)nc4ncccn24)C3)n1 [(3-chloro-6-methoxypyridin-2-yl)(3-{[2-(4-isopropylphenyl)imidazo[1,2-a]pyrimidin-3-yl]methyl}-3,8-diazabicyclo[3.2.1]oct-8-yl)methanone]",Percent pigs without collaps −50 cm H2O,[1]; [7],0%
same,Percent pigs without collaps −100 cm H2O,[1]; [7],0%
same,Percent pigs without collaps −150 cm H2O,[1]; [7],0%
same,Percent pigs without collaps −50 cm H2O,[1]; [8],33%
same,Percent pigs without collaps −100 cm H2O,[1]; [8],33%
same,Percent pigs without collaps −150 cm H2O,[1]; [8],0%
same,Percent pigs without collaps −50 cm H2O,[1]; [9],0%
same,Percent pigs without collaps −100 cm H2O,[1]; [9],0%
same,Percent pigs without collaps −150 cm H2O,[1]; [9],0%
same,Percent pigs without collaps −50 cm H2O,[1]; [10],0%
same,Percent pigs without collaps −100 cm H2O,[1]; [10],0%
same,Percent pigs without collaps −150 cm H2O,[1]; [10],0%
same,Percent pigs without collaps −50 cm H2O,[1]; [11],0%
same,Percent pigs without collaps −100 cm H2O,[1]; [11],0%
same,Percent pigs without collaps −150 cm H2O,[1]; [11],0%
"COc1cccc(C(=O)N2CCN(Cc3c(-c4ccc(Cl)cc4)nc4ccccn34)CC2)n1 [(4-{[2-(4-chlorophenyl)imidazo[1,2-a]pyridin-3-yl]methyl}piperazin-1-yl)(6-methoxypyridin-2-yl)methanone]",Percent pigs without collaps −50 cm H2O,[1]; [7],0%
same,Percent pigs without collaps −100 cm H2O,[1]; [7],0%
same,Percent pigs without collaps −150 cm H2O,[1]; [7],0%
same,Percent pigs without collaps −50 cm H2O,[1]; [8],0%
same,Percent pigs without collaps −100 cm H2O,[1]; [8],0%
same,Percent pigs without collaps −150 cm H2O,[1]; [8],0%
same,Percent pigs without collaps −50 cm H2O,[1]; [9],0%
same,Percent pigs without collaps −100 cm H2O,[1]; [9],0%
same,Percent pigs without collaps −150 cm H2O,[1]; [9],0%
same,Percent pigs without collaps −50 cm H2O,[1]; [10],0%
same,Percent pigs without collaps −100 cm H2O,[1]; [10],0%
same,Percent pigs without collaps −150 cm H2O,[1]; [10],0%
C[C@@H]1CCCN(C2CCN(c3ncc(C(=O)NCc4cccc(Cl)c4)s3)CC2)C1 [Example 94],IC50,human ADRA2C receptor,150 nM
Cc1ccc(C(C)NC(=O)c2cnc(N3CCC(N4CCC[C@@H](C)C4)CC3)s2)cc1 (stereo partly drawn) [Example 95],IC50,human ADRA2C receptor,800 nM
C[C@@H]1CCCN(C2CCN(c3ncc(C(=O)Nc4cc(Cl)ccc4O)s3)CC2)C1 [Example 96],IC50,human ADRA2C receptor,1000 nM
COc1ccc(F)cc1NC(=O)c1cnc(N2CCC(N3CCC[C@@H](C)C3)CC2)s1 [Example 97],IC50,human ADRA2C receptor,1300 nM
CCc1cc(NC(=O)c2cnc(N3CCC(N4CCC[C@@H](C)C4)CC3)s2)ccn1 [Example 98],IC50,human ADRA2C receptor,1600 nM
"O=C(NCc1ncc(F)cc1F)c1cnc(N2CCC(N3CCC[C@@H](OCC4CC4)C3)CC2)s1 [Example 114, 2-[(3R)-3-(Cyclopropylmethoxy)[1,4′-bipiperidin]-1′-yl]-N-[(3,5-difluoropyridin-2-yl)methyl]-1,3-thiazole-5-carboxamide]",IC50,human ADRA2C receptor,1.3 nM
"C[C@@H]1CCCN(C2CCN(c3nc(-c4ccccc4Cl)c(C(=O)NCc4ncc(F)cc4F)s3)CC2)C1 [Example 118, 4-(2-Chlorophenyl)-N-[(3,5-difluoropyridin-2-yl)methyl]-2-[(3R)-3-methyl[1,4′-bipiperidin]-1′-yl]-1,3-thiazole-5-carboxamide]",IC50,human ADRA2C receptor,7.7 nM
"C[C@@H]1CCCN(C2CCN(c3nc(Cl)c(C(=O)NCc4ncc(F)cc4F)s3)CC2)C1 [Example 120, 4-Chloro-N-[(3,5-difluoropyridin-2-yl)methyl]-2-[(3R)-3-methyl[1,4′-bipiperidin]-1′-yl]-1,3-thiazole-5-carboxamide]",IC50,human ADRA2C receptor,41 nM
"C[C@@H]1CCCN(C2CCN(c3nc(C4CC4)c(C(=O)NCc4ncc(F)cc4F)s3)CC2)C1 [Example 122, 4-Cyclopropyl-N-[(3,5-difluoropyridin-2-yl)methyl]-2-[(3R)-3-methyl[1,4′-bipiperidin]-1′-yl]-1,3-thiazole-5-carboxamide]",IC50,human ADRA2C receptor,13 nM
"O=C(NCc1ncc(F)cc1F)c1cnc(N2CCC(N3CCCCC3)CC2)s1 [Example 128, 2-([1,4′-Bipiperidin]-1′-yl)-N-[(3,5-difluoropyridin-2-yl)methyl]-1,3-thiazole-5-carboxamide]",IC50,human ADRA2C receptor,550 nM
"C[C@@H]1CCCN(C2CCN(c3ncc(C(=O)NC4(c5ncc(F)cc5F)CC4)s3)CC2)C1 [Example 129, N-[1-(3,5-Difluoropyridin-2-yl)cyclopropyl]-2-[(3R)-3-methyl[1,4′-bipiperidin]-1′-yl]-1,3-thiazole-5-carboxamide]",IC50,human ADRA2C receptor,10 nM
"CCc1nc(N2CCC(N3CCC[C@@H](C)C3)CC2)sc1C(=O)NCc1ncc(F)cc1F [Example 130, N-[(3,5-Difluoropyridin-2-yl)methyl]-4-ethyl-2-[(3R)-3-methyl[1,4′-bipiperidin]-1′-yl]-1,3-thiazole-5-carboxamide]",IC50,human ADRA2C receptor,0.54 nM
"O=C(NCc1ncc(F)cc1F)c1cnc(N2CCC(N3CCCC4(C3)CC4(F)F)C(F)C2)s1 (stereo not drawn) [Example 134, diamix-2-[4-(1,1-Difluoro-5-azaspiro[2.5]octan-5-yl)-3-fluoropiperidin-1-yl]-N-[(3,5-difluoropyridin-2-yl)methyl]-1,3-thiazole-5-carboxamide]",IC50,human ADRA2C receptor,0.74 nM
O=C(NCc1ncc(F)cc1F)c1cnc(N2CCC(N3CCCC4(COC4)C3)CC2)s1 [Example 136],IC50,human ADRA2C receptor,320 nM
O=C(NCc1ncc(F)cc1F)c1cnc(N2CCC(N3CCCC(C4CC4)C3)CC2)s1 (stereo not drawn) [Example 137],IC50,human ADRA2C receptor,19 nM
O=C(NCc1ncc(F)cc1F)c1cnc(N2CCC(N3CCCC(C4CCC4)C3)CC2)s1 (stereo not drawn) [Example 138],IC50,human ADRA2C receptor,6.5 nM
O=C(NCc1ncc(F)cc1F)c1cnc(N2CCC(N3CCc4ccc(Cl)cc4C3)CC2)s1 [Example 139],IC50,human ADRA2C receptor,0.65 nM
O=C(NCc1ncc(F)cc1F)c1cnc(N2CCC(N3CCc4cccc(Cl)c4C3)CC2)s1 [Example 141],IC50,human ADRA2C receptor,8.7 nM
O=C(NCc1ncc(F)cc1F)c1cnc(N2CCC(N3CCc4c(Cl)cccc4C3)CC2)s1 [Example 142],IC50,human ADRA2C receptor,6.7 nM
O=C(NCc1ncc(F)cc1F)c1cnc(N2CCC(N3CCc4cccc(F)c4C3)CC2)s1 [Example 144],IC50,human ADRA2C receptor,1.8 nM
COc1ccc2c(c1)CCN(C1CCN(c3ncc(C(=O)NCc4ncc(F)cc4F)s3)CC1)C2 [Example 145],IC50,human ADRA2C receptor,1 nM
Cc1ccc2c(c1)CCN(C1CCN(c3ncc(C(=O)NCc4ncc(F)cc4F)s3)CC1)C2 [Example 146],IC50,human ADRA2C receptor,1.72 nM
COCCC1CCCN(C2CCN(c3ncc(C(=O)NCc4ncc(F)cc4F)s3)CC2)C1 (stereo not drawn) [Example 148],IC50,human ADRA2C receptor,1.3 nM
CC(C)(C)C1CCCN(C2CCN(c3ncc(C(=O)NCc4ncc(F)cc4F)s3)CC2)C1 (stereo not drawn) [Example 149],IC50,human ADRA2C receptor,35 nM
C[C@@H]1CCCN(C2CCN(c3ncc(C(=O)N(C)Cc4ncc(F)cc4F)s3)CC2)C1 [Example 150],IC50,human ADRA2C receptor,200 nM
C[C@@H]1CCCN(C2CCN(c3ncc(C(=O)NCc4ccccc4Cl)s3)CC2)C1 [Example 151],IC50,human ADRA2C receptor,170 nM
